{
  "source": "patent US11059901B2",
  "about": "“Compositions and methods related to xCT antibodies” (AGIL VAX, INC., priority 2017, dated 2021)",
  "origin": "cited, not measured here",
  "key": {"xCT": {"target": "T1, xCT (Homo sapiens, UniProt Q9UPY5)", "T1 sequence (Q9UPY5 1-501)": "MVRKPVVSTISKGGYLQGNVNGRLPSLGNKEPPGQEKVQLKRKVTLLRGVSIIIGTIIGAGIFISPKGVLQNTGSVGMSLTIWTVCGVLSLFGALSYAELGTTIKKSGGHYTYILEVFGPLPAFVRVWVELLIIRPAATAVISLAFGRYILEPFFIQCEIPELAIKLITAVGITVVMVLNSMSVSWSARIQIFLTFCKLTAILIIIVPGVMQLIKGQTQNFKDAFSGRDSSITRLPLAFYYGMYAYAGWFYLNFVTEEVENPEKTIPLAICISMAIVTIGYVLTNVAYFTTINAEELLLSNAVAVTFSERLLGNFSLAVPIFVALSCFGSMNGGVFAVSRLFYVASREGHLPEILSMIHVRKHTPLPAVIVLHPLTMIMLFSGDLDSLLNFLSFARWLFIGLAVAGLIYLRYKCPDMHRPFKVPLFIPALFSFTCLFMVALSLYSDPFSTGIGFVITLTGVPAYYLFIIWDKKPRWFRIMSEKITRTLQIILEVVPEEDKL", "T1 sequence (P08195 1-529 partner)": "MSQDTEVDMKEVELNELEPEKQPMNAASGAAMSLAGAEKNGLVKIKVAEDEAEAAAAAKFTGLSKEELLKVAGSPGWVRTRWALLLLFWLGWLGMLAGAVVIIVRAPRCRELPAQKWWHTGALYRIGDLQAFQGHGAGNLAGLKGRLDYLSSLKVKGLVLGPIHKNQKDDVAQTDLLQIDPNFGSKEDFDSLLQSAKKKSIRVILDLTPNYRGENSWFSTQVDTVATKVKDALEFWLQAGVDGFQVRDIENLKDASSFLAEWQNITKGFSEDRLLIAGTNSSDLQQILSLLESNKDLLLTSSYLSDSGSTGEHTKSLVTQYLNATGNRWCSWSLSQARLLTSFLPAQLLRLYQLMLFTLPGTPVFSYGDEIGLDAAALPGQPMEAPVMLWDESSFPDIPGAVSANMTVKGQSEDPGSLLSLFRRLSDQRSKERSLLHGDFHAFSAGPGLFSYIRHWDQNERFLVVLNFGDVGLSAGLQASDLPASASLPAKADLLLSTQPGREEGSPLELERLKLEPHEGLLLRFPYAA"}, "[1]": {"settings": "under physiological conditions"}},
  "data": [
    {"smiles": "O=C(O)c1cc(/N=N/c2ccc(S(=O)(=O)Nc3ccccn3)cc2)ccc1O", "note": "[SASP, sulfasalazine]", "values": [
      {"measurement": "metastatic foci", "setting": "xCT; animal models of breast cancer metastasis", "value": "significant decreases"},
      {"measurement": "frequency of CSC", "setting": "xCT; in vivo", "value": "reductions"},
      {"measurement": "solubility", "setting": "[1]", "value": "insoluble"},
      {"measurement": "stability", "setting": "[1]", "value": "labile"}
    ]}
  ]
}
